Experiments:
Experiment in all cases: relative viability (nuclei count vs DMSO), 5 days (fraction); higher = more cells survive
BEN = system: BEN
Method in brief: (§1)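 Lung cancer cell lines, seeded in 1536-well plates, were treated the following day by pin tool with a single drug or with five library-drug doses (not always all listed) in √10 steps on top of a fixed anchor-drug dose. Cells were fixed and nuclei stained in one step after 5 days, and nuclei were counted. Relative viability is the nuclei count for treated wells divided by that for vehicle wells, reported as medians of duplicate plates.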

ChaGo-K-1 = system: ChaGo-K-1
Method in brief: as §1

HCC-78 = system: HCC-78
Method in brief: as §1

LC-2-ad = system: LC-2-ad
Method in brief: as §1

LCLC-97TM1 = system: LCLC-97TM1
Method in brief: as §1

LK-2 = system: LK-2
Method in brief: as §1

LU99A = system: LU99A
Method in brief: as §1

LXF-289 = system: LXF-289
Method in brief: as §1

NCI-H1355 = system: NCI-H1355
Method in brief: as §1

NCI-H1651 = system: NCI-H1651
Method in brief: as §1

NCI-H1666 = system: NCI-H1666
Method in brief: as §1

NCI-H1944 = system: NCI-H1944
Method in brief: as §1

NCI-H1975 = system: NCI-H1975
Method in brief: as §1

NCI-H2087 = system: NCI-H2087
Method in brief: as §1

NCI-H2342 = system: NCI-H2342
Method in brief: as §1

NCI-H358 = system: NCI-H358
Method in brief: as §1

NCI-H596 = system: NCI-H596
Method in brief: as §1

NCI-H650 = system: NCI-H650
Method in brief: as §1

NCI-H838 = system: NCI-H838
Method in brief: as §1

PC-3 [JPC-3] = system: PC-3 [JPC-3]
Method in brief: as §1

COc1nc(C)cnc1NS(=O)(=O)c1cccnc1-c1ccc(-c2nnco2)cc1 [Zibotentan] + NC(=O)Nc1cc(-c2cccc(F)c2)sc1C(=O)N[C@H]1CCCNC1 [AZD7762] (partner 0.2 µM)
relative viability (BEN; first compound 0.08 µM): 0.7 | relative viability (BEN; first compound 0.253 µM): 0.588 | relative viability (BEN; first compound 0.8 µM): 0.682 | relative viability (BEN; first compound 2.53 µM): 0.677 | relative viability (ChaGo-K-1; first compound 0.08 µM): 0.912 | relative viability (ChaGo-K-1; first compound 0.253 µM): 0.842 | relative viability (ChaGo-K-1; first compound 0.8 µM): 0.756 | relative viability (ChaGo-K-1; first compound 2.53 µM): 0.927 | relative viability (HCC-78; first compound 0.08 µM): 0.712 | relative viability (HCC-78; first compound 0.253 µM): 0.475 | relative viability (HCC-78; first compound 0.8 µM): 0.664 | relative viability (HCC-78; first compound 2.53 µM): 0.474 | relative viability (LC-2-ad; first compound 0.08 µM): 0.785 | relative viability (LC-2-ad; first compound 0.253 µM): 0.781 | relative viability (LC-2-ad; first compound 0.8 µM): 0.791 | relative viability (LC-2-ad; first compound 2.53 µM): 0.905 | relative viability (LCLC-97TM1; first compound 0.08 µM): 0.433 | relative viability (LCLC-97TM1; first compound 0.253 µM): 0.165 | relative viability (LCLC-97TM1; first compound 0.8 µM): 0.12 | relative viability (LCLC-97TM1; first compound 2.53 µM): 0.253 | relative viability (LK-2; first compound 0.08 µM): 0.479 | relative viability (LK-2; first compound 0.253 µM): 0.327 | relative viability (LK-2; first compound 0.8 µM): 0.441 | relative viability (LK-2; first compound 2.53 µM): 0.282 | relative viability (LU99A; first compound 0.08 µM): 0.425 | relative viability (LU99A; first compound 0.253 µM): 0.412 | relative viability (LU99A; first compound 0.8 µM): 0.228 | relative viability (LU99A; first compound 2.53 µM): 0.429 | relative viability (LXF-289; first compound 0.08 µM): 1.07 | relative viability (LXF-289; first compound 0.253 µM): 1.05 | relative viability (LXF-289; first compound 0.8 µM): 1.06 | relative viability (LXF-289; first compound 2.53 µM): 1.08 | relative viability (NCI-H1355; first compound 0.08 µM): 0.81 | relative viability (NCI-H1355; first compound 0.253 µM): 0.858 | relative viability (NCI-H1355; first compound 0.8 µM): 0.432 | relative viability (NCI-H1355; first compound 2.53 µM): 0.774 | relative viability (NCI-H1651; first compound 0.08 µM): 0.448 | relative viability (NCI-H1651; first compound 0.253 µM): 0.389 | relative viability (NCI-H1651; first compound 0.8 µM): 0.446 | relative viability (NCI-H1651; first compound 2.53 µM): 0.419 | relative viability (NCI-H1666; first compound 0.08 µM): 0.866 | relative viability (NCI-H1666; first compound 0.253 µM): 0.795 | relative viability (NCI-H1666; first compound 0.8 µM): 0.898 | relative viability (NCI-H1666; first compound 2.53 µM): 0.791 | relative viability (NCI-H1944; first compound 0.08 µM): 0.561 | relative viability (NCI-H1944; first compound 0.253 µM): 0.487 | relative viability (NCI-H1944; first compound 0.8 µM): 0.249 | relative viability (NCI-H1944; first compound 2.53 µM): 0.548 | relative viability (NCI-H1975; first compound 0.08 µM): 0.767 | relative viability (NCI-H1975; first compound 0.253 µM): 0.626 | relative viability (NCI-H1975; first compound 0.8 µM): 0.728 | relative viability (NCI-H1975; first compound 2.53 µM): 0.659 | relative viability (NCI-H2087; first compound 0.08 µM): 1.28 | relative viability (NCI-H2087; first compound 0.253 µM): 1.22 | relative viability (NCI-H2087; first compound 0.8 µM): 1.29 | relative viability (NCI-H2087; first compound 2.53 µM): 1.29 | relative viability (NCI-H2342; first compound 0.08 µM): 0.556 | relative viability (NCI-H2342; first compound 0.253 µM): 0.507 | relative viability (NCI-H2342; first compound 0.8 µM): 0.439 | relative viability (NCI-H2342; first compound 2.53 µM): 0.517 | relative viability (NCI-H358; first compound 0.08 µM): 0.48 | relative viability (NCI-H358; first compound 0.253 µM): 0.405 | relative viability (NCI-H358; first compound 0.8 µM): 0.383 | relative viability (NCI-H358; first compound 2.53 µM): 0.667 | relative viability (NCI-H596; first compound 0.08 µM): 1.13 | relative viability (NCI-H596; first compound 0.253 µM): 1.01 | relative viability (NCI-H596; first compound 0.8 µM): 1.06 | relative viability (NCI-H596; first compound 2.53 µM): 1.22 | relative viability (NCI-H650; first compound 0.08 µM): 1.09 | relative viability (NCI-H650; first compound 0.253 µM): 0.892 | relative viability (NCI-H650; first compound 0.8 µM): 0.943 | relative viability (NCI-H650; first compound 2.53 µM): 1.11 | relative viability (NCI-H838; first compound 0.08 µM): 0.91 | relative viability (NCI-H838; first compound 0.253 µM): 0.909 | relative viability (NCI-H838; first compound 0.8 µM): 0.912 | relative viability (NCI-H838; first compound 2.53 µM): 0.956 | relative viability (PC-3 [JPC-3]; first compound 0.08 µM): 0.711 | relative viability (PC-3 [JPC-3]; first compound 0.253 µM): 0.654 | relative viability (PC-3 [JPC-3]; first compound 0.8 µM): 0.733 | relative viability (PC-3 [JPC-3]; first compound 2.53 µM): 0.861

Source: the supplement of paper PMC10307832
